A melting point compilation (Tetko et al.)

Compound | melting point [°C]
Nc1nc(Cc2ccccc2)c(-c2ccccc2)s1 | 139 to 141
c1cc(NC2CCCCCC2)c2cccnc2c1 | 100 to 102
Cc1ccc(Cl)c(N)c1C(=O)O | 119 to 121
O=c1[nH]c(S)nc2sccc12 | 315 to 317
CC1(C)NC(=O)N=C1N | 259 to 261
Cc1cc(Br)oc1C(=O)O | 169 to 171
Cc1ccc(-n2c(=O)c(N)c(C)n2C)cc1 | 261 to 263
COc1cc2c(cc1OC)CC(=O)NCC2 | 192 to 194
COc1cc(CN)cc(OC)c1 | 35 to 37
Cc1nnc(S)o1 | 239 to 241
O=C(O)Cc1cnn(-c2ccccc2)n1 | 105 to 107
CC(C)(C)OC(=O)N1CCN2C(=O)NCC2C1 (stereo not drawn) | 218 to 220
Cc1nc(N)sc1Cc1cccc(Cl)c1 | 74 to 76
N#CCC(=O)NCc1ccco1 | 93 to 95
O=C(O)C1CC1c1ccccc1OC(F)F (stereo not drawn) | 63 to 65
CC(=O)c1c(C)nc2sccn12 | 132 to 134
Nc1nsc(N2CCNCC2)n1 | 193 to 195
O=C(O)CCS(=O)(=O)c1ccc2c(c1)OCCCO2 | 109 to 111
CC1(C)OC(=O)C(=Cc2ccc(I)o2)C(=O)O1 | 124 to 126
CN(C)Cc1cccc(NC(=O)c2nonc2N)c1 | 142 to 144

Compound | melting point [°C]
Clc1ccccc1-c1ncn[nH]1 | 154 to 156
Brc1cnc2nccn2c1 | 201 to 203
Cc1c(C(=O)O)nnn1-c1ccc2c(c1)OCCO2 | 189 to 191
O=CNc1cccc(O)c1 | 115 to 117
Cc1ccc(OC(C)C(=O)O)c(Br)c1 (stereo not drawn) | 120 to 122
CC(C)n1cnnc1S | 116 to 118
NC(=O)C1CCc2ccccc2N1 (stereo not drawn) | 115 to 117
CC(C)n1ncc2cc(C=O)c(Cl)nc21 | 78 to 80
C#Cc1c(F)cccc1F | 34 to 36
O=C(O)c1cc(-c2ccccc2)n(-c2ccccn2)n1 | 194 to 196
CSc1nc(C(=O)O)cc(C2CC2)n1 | 135 to 137
COC(=O)c1cc(Cl)ccn1 | 55 to 57
Cc1cc(F)c(S(N)(=O)=O)cc1[N+](=O)[O-] | 159 to 161
NC(=O)c1ccn(-c2ccc(N)cc2)n1 | 230 to 232
CC1(C)CC(=O)c2ccccc2O1 | 87 to 89
O=C(O)C(Cc1ccccc1)NC(=O)C(c1ccccc1)c1ccccc1 (stereo not drawn) | 149 to 151
Cc1nn(-c2cccc(Cl)c2)c2sc(C(=O)O)cc12 | 268 to 270
S=C=Nc1cccnc1Cl | 35 to 37
N#Cc1ccc(N=C=S)cc1Cl | 75 to 77
O=C(O)c1ccc(CN2CCC(CO)CC2)cc1 | 219 to 221

Compound | melting point [°C]
Cc1ccc2[nH]cnc2c1C | 169 to 171
Nc1nc2ccc(C(=O)O)cc2o1 | 337 to 339
O=c1[nH]ccc2ccn(Cc3ccccc3)c12 | 177 to 179
Cc1c(C(=O)O)c(=O)oc2cc(F)ccc12 | 169 to 171
CCc1c(C(C)O)oc2ccccc12 (stereo not drawn) | 66 to 68
Cc1ccc2sc(-c3ccc(CCl)cc3)nc2c1 | 149 to 151
NC(=O)c1ccc2[nH]cc(C3CCNCC3)c2c1 | 149 to 151
COCCc1ccc(S(=O)(=O)Cl)cc1 | 40 to 42
O=C(O)CCCCCNC(=O)NC1CCCCC1 | 138 to 140
O=Cc1cnn(-c2ccc(Br)cc2)c1 | 124 to 126
O=C1NC(=O)C2CN(Cc3ccccc3)CC12 (stereo not drawn) | 91 to 93
Cc1ncc(C(=O)O)c(C)n1 | 151 to 153
O=C(O)CCc1nc2cc(Cl)ccc2s1 | 145 to 147
Cc1c(C(=O)O)cc([N+](=O)[O-])c(C)c1[N+](=O)[O-] | 201 to 203
CCC(Br)C(=O)c1ccc(NC(C)=O)cc1 (stereo not drawn) | 107 to 109
N#Cc1cccc(Oc2ccc(N)cc2)c1 | 39 to 41
Cn1ccc2c1C(=O)NCC2 | 71 to 73
CC(=O)N(c1ccc(F)cc1)c1nc(C=O)cs1 | 216 to 218
